Legend:
Assay in all cases: relative viability (nuclei count vs DMSO), 5 days (fraction); higher = more cells survive
[1] = compound: Cc1cc(Nc2cc(N3CCN(C)CC3)nc(Sc3ccc(NC(=O)C4CC4)cc3)n2)n[nH]1 [Tozasertib] + CC(C)C[C@H](NC(=O)[C@H](Cc1ccccc1)NC(=O)c1cnccn1)B(O)O [Bortezomib] (partner 0.002 µM)
Procedure, shortened: (§1)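 Lung cancer cell lines were seeded in 1536-well plates and dosed by pin tool the next day, with either a single drug or a fixed anchor-drug dose combined with five library-drug doses (not always all listed) spaced in √10 steps. Five days later, one step fixed the cells and stained their nuclei (final 0.05% Triton X-100, 1% formaldehyde, 1 ug/ml Hoechst), and nuclei were counted on 4× images. Relative viability is the nuclei count in treated wells divided by the count in vehicle wells, and each value is the median of duplicate plates.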

[2] = compound: Cc1cc(Nc2cc(N3CCN(C)CC3)nc(Sc3ccc(NC(=O)C4CC4)cc3)n2)n[nH]1 [Tozasertib] + CS(=O)(=O)CCNCc1ccc(-c2ccc3ncnc(Nc4ccc(OCc5cccc(F)c5)c(Cl)c4)c3c2)o1 [Lapatinib] (partner 2 µM)
Procedure, shortened: as §1

[3] = compound: Cc1cc(Nc2cc(N3CCN(C)CC3)nc(Sc3ccc(NC(=O)C4CC4)cc3)n2)n[nH]1 [Tozasertib] + C[C@@H](Oc1cc(-c2cnn(C3CCNCC3)c2)cnc1N)c1c(Cl)ccc(F)c1Cl [Crizotinib] (partner 1 µM)
Procedure, shortened: as §1

[4] = compound: Cc1cc(Nc2cc(N3CCN(C)CC3)nc(Sc3ccc(NC(=O)C4CC4)cc3)n2)n[nH]1 [Tozasertib] + Nc1nc2[nH]cc(CCc3ccc(C(=O)N[C@@H](CCC(=O)O)C(=O)O)cc3)c2c(=O)[nH]1 [Pemetrexed] (partner 0.2 µM)
Procedure, shortened: as §1

[5] = compound: Cc1cc(Nc2cc(N3CCN(C)CC3)nc(Sc3ccc(NC(=O)C4CC4)cc3)n2)n[nH]1 [Tozasertib] + COc1cc2c(Oc3ccc(NC(=O)C4(C(=O)Nc5ccc(F)cc5)CC4)cc3F)ccnc2cc1OCCCN1CCOCC1 [Foretinib] (partner 0.25 µM)
Procedure, shortened: as §1

Row | Cell Line | relative viability ([1]; first compound 0.004 µM) | relative viability ([1]; first compound 0.01265 µM) | relative viability ([1]; first compound 0.04 µM) | relative viability ([1]; first compound 0.1265 µM) | relative viability ([2]; first compound 0.004 µM) | relative viability ([2]; first compound 0.01265 µM) | relative viability ([2]; first compound 0.04 µM) | relative viability ([2]; first compound 0.1265 µM) | relative viability ([3]; first compound 0.004 µM) | relative viability ([3]; first compound 0.01265 µM) | relative viability ([3]; first compound 0.04 µM) | relative viability ([3]; first compound 0.1265 µM) | relative viability ([4]; first compound 0.004 µM) | relative viability ([4]; first compound 0.01265 µM) | relative viability ([4]; first compound 0.04 µM) | relative viability ([4]; first compound 0.1265 µM) | relative viability ([5]; first compound 0.004 µM) | relative viability ([5]; first compound 0.01265 µM) | relative viability ([5]; first compound 0.04 µM) | relative viability ([5]; first compound 0.1265 µM)
1 | HCC-44 | 0.866 | 0.942 | 1.04 | 0.786 | 1.06 | 1.02 | 1.06 | 0.862 | 0.861 | 0.891 | 0.801 | 0.705 | 0.677 | 0.552 | 0.604 | 0.599 |  |  |  | 
2 | HCC-78 | 0.504 |  |  | 0.497 | 0.985 | 0.58 |  | 0.643 | 0.333 | 0.324 | 0.356 | 0.288 | 0.938 | 0.901 | 0.919 | 0.881 | 0.678 | 0.708 | 0.587 | 0.466
3 | HCC-366 | 1.2 | 1 | 1.15 | 0.53 | 1.1 | 0.992 |  | 0.0536 |  | 0.472 | 0.257 | 0.039 | 0.173 | 0.145 | 0.184 | 0.136 |  | 0.912 | 0.63 | 0.0962
4 | HCC-827 | 1.03 | 1.04 | 1.06 | 0.839 | 0.222 | 0.18 | 0.215 | 0.192 | 1.02 | 0.82 | 0.927 | 0.719 | 0.254 | 0.239 | 0.293 | 0.262 | 0.996 | 1.03 | 1.13 | 0.758
5 | LCLC-103H | 1.04 | 1.14 | 1.2 | 0.974 |  |  |  |  | 0.993 | 1.05 | 1.1 | 1.07 | 0.482 | 0.46 | 0.444 | 0.45 | 0.81 | 0.78 | 0.713 | 0.416
6 | LK-2 |  |  |  |  | 1.01 | 0.869 | 1.01 | 0.219 | 0.19 |  | 0.239 | 0.244 | 0.307 | 0.354 | 0.287 | 0.134 | 1.51 | 0.927 | 1.34 | 0.267
7 | NCI-H358 |  |  |  |  | 0.54 | 0.376 | 0.439 | 0.206 | 0.457 | 0.345 | 0.261 | 0.228 | 0.179 | 0.164 | 0.181 | 0.145 | 0.736 | 0.617 | 0.545 | 0.106
8 | NCI-H441 | 0.424 | 0.298 | 0.379 | 0.213 |  |  |  |  | 0.706 | 0.591 | 0.828 | 0.628 | 0.264 | 0.235 | 0.251 | 0.237 | 1.05 | 0.914 | 0.895 | 0.887
9 | NCI-H522 |  |  |  |  |  |  |  |  |  |  |  |  | 0.931 | 1.16 | 0.927 | 0.837 |  |  |  | 
10 | NCI-H727 | 1.07 | 1.04 | 1.02 | 0.53 | 0.959 |  | 0.942 | 0.442 | 0.683 | 0.783 | 0.787 | 0.402 |  |  |  |  | 1.02 | 0.984 | 0.958 | 0.689
11 | NCI-H1395 |  |  |  |  | 1.29 | 0.818 | 1.04 | 0.572 |  |  |  |  | 0.979 | 0.797 | 0.864 | 0.584 | 0.951 | 0.864 | 0.972 | 0.838
12 | NCI-H1703 | 0.41 | 0.29 | 0.401 | 0.222 | 1.4 | 0.918 | 1.11 | 0.301 | 1.58 | 0.848 | 0.318 | 0.24 |  |  |  |  | 0.36 | 0.409 | 0.337 | 0.327
13 | NCI-H1792 | 0.771 | 0.88 | 1.1 | 0.96 | 0.913 | 0.742 | 0.943 | 0.737 | 0.951 | 0.9 | 1.16 | 0.913 | 0.928 | 0.616 | 0.895 | 0.515 |  |  |  | 
14 | NCI-H1793 |  |  |  |  | 0.699 | 0.598 | 0.573 | 0.364 |  |  |  |  | 1.02 |  | 1.16 | 0.458 |  | 0.56 | 0.596 | 0.389
15 | NCI-H1944 |  |  |  |  | 0.869 | 0.728 | 0.772 | 0.339 | 0.943 | 0.962 | 1.04 | 0.616 | 0.577 | 0.579 | 0.588 | 0.537 | 0.876 | 0.753 | 0.72 | 0.459
16 | NCI-H2170 |  |  |  |  | 0.271 | 0.288 | 0.278 | 0.251 | 1.15 | 1.19 | 1.02 | 0.736 | 0.289 | 0.241 | 0.293 | 0.271 | 0.985 | 0.591 |  | 0.907
17 | NCI-H2342 |  |  |  |  |  |  |  |  |  |  |  |  | 0.809 | 0.778 | 0.744 | 0.759 | 0.949 | 0.997 | 1.02 | 0.908
18 | SK-MES-1 |  |  |  |  | 0.477 | 0.468 | 0.514 | 0.438 | 1.04 | 0.929 | 0.94 | 0.901 | 0.907 | 0.892 | 1.02 | 0.769 | 0.934 | 0.814 | 0.884 | 1.03
19 | SW 900 |  |  |  |  |  |  |  |  |  |  |  |  | 0.516 |  | 0.498 | 0.408 | 0.914 | 0.825 | 1.08 | 0.638

Reference: the supplement of paper PMC10307832
